# Results from the supplement of paper PMC10307832.
# Compound: O=C1NC(=O)[C@@H](c2cn3c4c(cccc24)CCC3)[C@@H]1c1c[nH]c2ccccc12 [Tivantinib] + CC(=O)c1c(C)c2cnc(Nc3ccc(N4CCNCC4)cn3)nc2n(C2CCCC2)c1=O [Palbociclib] (partner 0.5 µM)
# Assay: relative viability (nuclei count vs DMSO), 5 days (fraction); higher = more cells survive
# Details: first compound 0.01 µM
# Outline: (§1)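 Five library-drug doses in √10 steps were combined with a fixed anchor-drug dose, or a single drug was given alone, by pin tool to lung cancer cell lines in 1536-well plates the day after seeding. Nuclei were stained and counted after 5 days. Relative viability is the nuclei count in treated wells over that in vehicle wells, taken as the median of duplicate plates.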
row,Cell Line,relative viability
1,NCI-H522,1.06
2,NCI-H838,0.245
3,NCI-H1651,0.518
4,NCI-H1734,0.384
5,NCI-H2009,0.267
6,EPLC-272H,0.298
7,PC-14,0.594
8,LCLC-97TM1,0.271
9,NCI-H2228,0.895
10,EMC-BAC-2,0.518
11,NCI-H2087,0.209
12,HCC-44,0.946
13,NCI-H647,0.433
14,LK-2,0.643
15,NCI-H2126,0.366
16,NCI-H2342,0.498
17,SK-MES-1,0.336
18,HARA,0.259
19,COR-L23,0.343
20,COR-L 105,0.441
21,LC-2-ad,0.46
22,LU99A,0.393
23,ChaGo-K-1,0.95
24,NCI-H2170,0.398

row,Cell Line,relative viability
1,NCI-H3122,0.208
2,HCC-78,0.49
3,SW 900,0.581
4,LXF-289,0.563
5,BEN,0.446
6,HCC-15,0.724
7,HCC-827,0.458
8,NCI-H441,0.224
9,LOU-NH91,0.557
10,NCI-H2023,0.447
11,A-427,0.547
12,NCI-H460,0.141
13,NCI-H727,0.619
14,NCI-H1755,0.437
15,NCI-H520,0.263
16,NCI-H2405,0.565
17,SW 1573,0.464
18,NCI-H1395,0.708
19,201T,0.368
20,NCI-H1975,0.55
21,HOP-62,0.454
22,NCI-H2347,0.399
23,NCI-H1355,0.395
24,NCI-H650,0.392

row,Cell Line,relative viability
1,CAL-12T,0.409
2,NCI-H1666,0.691
3,H3255,0.298
4,NCI-H23,0.614
5,NCI-H1915,0.527
6,NCI-H1437,0.311
7,NCI-H322M,0.519
8,NCI-H1792,0.685
9,NCI-H2085,0.472
10,HCC-366,0.434
11,NCI-H1793,0.334
12,PC-3 [JPC-3],0.482
13,EKVX,0.408
14,LCLC-103H,0.477
15,NCI-H1650,0.325
16,NCI-H1944,0.366
17,NCI-H1993,0.701
18,SK-LU-1,0.42
19,ABC-1,0.689
20,NCI-H358,0.172
21,NCI-H661,0.453
22,RERF-LC-KJ,0.644

# Same assay, conditions: first compound 0.03162 µM
row,Cell Line,relative viability
1,NCI-H522,0.737
2,NCI-H838,0.212
3,NCI-H1651,0.461
4,NCI-H1734,0.319
5,NCI-H2009,0.186
6,EPLC-272H,0.323
7,PC-14,0.578
8,LCLC-97TM1,0.257
9,NCI-H2228,0.794
10,EMC-BAC-2,0.512
11,NCI-H2087,0.233
12,HCC-44,0.953
13,NCI-H647,0.347
14,LK-2,0.472
15,NCI-H2126,0.323
16,NCI-H2342,0.49
17,SK-MES-1,0.345
18,HARA,0.249
19,COR-L23,0.304
20,COR-L 105,0.385
21,LC-2-ad,0.442
22,LU99A,0.427
23,ChaGo-K-1,0.946
24,NCI-H2170,0.411

row,Cell Line,relative viability
1,NCI-H3122,0.216
2,HCC-78,0.445
3,SW 900,0.535
4,LXF-289,0.563
5,BEN,0.474
6,HCC-15,0.761
7,NCI-H1648,0.235
8,HCC-827,0.531
9,NCI-H441,0.209
10,LOU-NH91,0.543
11,NCI-H2023,0.376
12,A-427,0.551
13,NCI-H460,0.138
14,NCI-H727,0.528
15,NCI-H1755,0.44
16,NCI-H520,0.213
17,NCI-H2405,0.584
18,SW 1573,0.384
19,NCI-H1395,0.625
20,201T,0.386
21,NCI-H1975,0.536
22,HOP-62,0.399
23,NCI-H2347,0.472
24,NCI-H1355,0.374

row,Cell Line,relative viability
1,NCI-H650,0.32
2,CAL-12T,0.345
3,NCI-H1666,0.596
4,H3255,0.303
5,NCI-H23,0.457
6,NCI-H1915,0.446
7,NCI-H1437,0.28
8,NCI-H322M,0.484
9,NCI-H1792,0.62
10,NCI-H2085,0.483
11,HCC-366,0.362
12,NCI-H1793,0.237
13,PC-3 [JPC-3],0.6
14,EKVX,0.446
15,LCLC-103H,0.449
16,NCI-H1650,0.322
17,NCI-H1944,0.327
18,NCI-H1993,0.621
19,SK-LU-1,0.394
20,ABC-1,0.567
21,NCI-H358,0.16
22,NCI-H661,0.395
23,RERF-LC-KJ,1.1

# Same assay, conditions: first compound 0.1 µM
row,Cell Line,relative viability
1,NCI-H522,1.03
2,NCI-H838,0.188
3,NCI-H1651,0.495
4,NCI-H1734,0.336
5,NCI-H2009,0.126
6,EPLC-272H,0.308
7,PC-14,0.499
8,LCLC-97TM1,0.172
9,NCI-H2228,0.652
10,EMC-BAC-2,0.503
11,NCI-H2087,0.276
12,HCC-44,0.883
13,NCI-H647,0.356
14,LK-2,0.69
15,NCI-H2126,0.342
16,NCI-H2342,0.719
17,SK-MES-1,0.296
18,HARA,0.246
19,COR-L23,0.268
20,COR-L 105,0.436
21,LC-2-ad,0.515
22,LU99A,0.392
23,ChaGo-K-1,0.93
24,NCI-H2170,0.363

row,Cell Line,relative viability
1,NCI-H3122,0.164
2,HCC-78,0.448
3,SW 900,0.588
4,LXF-289,0.545
5,BEN,0.508
6,HCC-15,0.638
7,NCI-H1648,0.21
8,HCC-827,0.487
9,NCI-H441,0.199
10,LOU-NH91,0.527
11,NCI-H2023,0.334
12,A-427,0.484
13,NCI-H460,0.162
14,NCI-H727,0.714
15,NCI-H1755,0.432
16,NCI-H520,0.2
17,NCI-H2405,0.486
18,SW 1573,0.32
19,NCI-H1395,0.632
20,201T,0.364
21,NCI-H1975,0.536
22,HOP-62,0.425
23,NCI-H2347,0.422
24,NCI-H1355,0.385

row,Cell Line,relative viability
1,NCI-H650,0.314
2,CAL-12T,0.347
3,NCI-H1666,0.66
4,H3255,0.331
5,NCI-H23,0.462
6,NCI-H1915,0.544
7,NCI-H1437,0.335
8,NCI-H322M,0.475
9,NCI-H1792,0.627
10,NCI-H2085,0.463
11,HCC-366,0.399
12,NCI-H1793,0.325
13,PC-3 [JPC-3],0.508
14,EKVX,0.381
15,LCLC-103H,0.486
16,NCI-H1650,0.426
17,NCI-H1944,0.324
18,NCI-H1993,0.583
19,SK-LU-1,0.423
20,ABC-1,0.577
21,NCI-H358,0.151
22,NCI-H661,0.397
23,RERF-LC-KJ,1.01

# Same assay, conditions: first compound 0.3162 µM
row,Cell Line,relative viability
1,NCI-H522,0.812
2,NCI-H838,0.207
3,NCI-H1651,0.424
4,NCI-H1734,0.366
5,NCI-H2009,0.207
6,EPLC-272H,0.273
7,PC-14,0.536
8,LCLC-97TM1,0.225
9,NCI-H2228,0.602
10,EMC-BAC-2,0.527
11,NCI-H2087,0.228
12,HCC-44,0.945
13,NCI-H647,0.409
14,LK-2,0.369
15,NCI-H2126,0.397
16,NCI-H2342,0.438
17,SK-MES-1,0.361
18,HARA,0.193
19,COR-L23,0.325
20,COR-L 105,0.375
21,LC-2-ad,0.456
22,LU99A,0.366

row,Cell Line,relative viability
1,ChaGo-K-1,0.925
2,NCI-H3122,0.186
3,HCC-78,0.426
4,SW 900,0.492
5,LXF-289,0.584
6,BEN,0.447
7,HCC-15,0.852
8,NCI-H1648,0.267
9,NCI-H441,0.212
10,LOU-NH91,0.541
11,NCI-H2023,0.327
12,A-427,0.507
13,NCI-H460,0.135
14,NCI-H1755,0.459
15,NCI-H520,0.203
16,NCI-H2405,0.536
17,SW 1573,0.343
18,NCI-H1395,0.527
19,201T,0.348
20,NCI-H1975,0.37
21,HOP-62,0.466
22,NCI-H2347,0.381

row,Cell Line,relative viability
1,NCI-H1355,0.384
2,NCI-H650,0.323
3,CAL-12T,0.185
4,NCI-H1666,0.681
5,NCI-H23,0.493
6,NCI-H1915,0.58
7,NCI-H1437,0.289
8,NCI-H1792,0.618
9,NCI-H2085,0.468
10,HCC-366,0.337
11,NCI-H1793,0.241
12,PC-3 [JPC-3],0.491
13,EKVX,0.174
14,LCLC-103H,0.409
15,NCI-H1650,0.254
16,NCI-H1944,0.297
17,NCI-H1993,0.567
18,SK-LU-1,0.34
19,ABC-1,0.46
20,NCI-H358,0.0952
21,NCI-H661,0.315
22,RERF-LC-KJ,0.647

# Compound: O=C1NC(=O)[C@@H](c2cn3c4c(cccc24)CCC3)[C@@H]1c1c[nH]c2ccccc12 [Tivantinib] + O=C(c1cc(Cc2n[nH]c(=O)c3ccccc23)ccc1F)N1CCN(C(=O)C2CC2)CC1 [Olaparib] (partner 8 µM)
# Assay: as above
# Details: first compound 0.01 µM
# Outline: as §1
row,Cell Line,relative viability
1,NCI-H522,0.639
2,NCI-H838,0.775
3,NCI-H1651,0.207
4,EBC-1,0.708
5,NCI-H1734,0.61
6,NCI-H2009,0.714
7,EPLC-272H,0.97
8,PC-14,0.238
9,LCLC-97TM1,0.39
10,NCI-H596,0.734
11,NCI-H2228,0.43
12,EMC-BAC-2,0.45
